Experimental findings from US12077768B2, “Plants having increased tolerance to herbicides” (BASF AGRO B.V., priority 2013, dated 2024) are described below.

For this test, the system named is mutated PPO sequences (e.g. SEQ ID NOs: 1, 30, 31, 11, 37, and 117) as wildtype or with respective mutations, expressed in leaf discs. The experiment in a line: Herbicide tolerance of transiently transformed tobacco leaf discs expressing wildtype or mutated PPO: tolerance factors from IC50 of PSII yield inhibition versus empty vector. It is filed as cell-based, Nicotiana benthamiana.

As for `C#CCN1C(=O)C(F)(F)Oc2cc(F)c(-n3c(=O)n(C)c(=S)n(C)c3=O)cc21` [1,5-dimethyl-6-thioxo-3-(2,2,7-trifluoro-3-oxo-4-(prop-2-ynyl)-3,4-dihydro-2H-benzo[b][1,4]oxazin-6-yl)-1,3,5-triazinane-2,4-dione], the “Tolerance factor (IC50 of PSII yield inhibition, transformed versus empty vector-transformed leaf discs)” value is on record as 28.7.
